Results as given in publication PMC11878259 (2025).

Tests used:
[1] = test system: Cy5-labeled eBroccoli (RNA, aptamer) GCCCGGAUAGCUCAGUCGGUAGAGCAGCGGAGACGGUCGGGUCCAGAUAGUAGUAUCUGUCGAGUUGAGUGUGGGCUCCGCGGGUCCAGGGUUCAAGUCCCUGUUCGGGCGCCA; test: fluorescence imaging in RNA-peptide condensates; conditions: 100 mM K+, 1 mM Mg2+; 40 mM Tris pH 7.5, room temperature; 5 µM RNA; rU22 or rA22 with [RGRGG]5 or R10
[2] = test system: Cy5-labeled Broccoli (RNA, aptamer) GCCCGGAUAGCUCAGUCGGUAGAGCAGCGGAGACGGUCGGGUCCAGAUAUUCGUAUCUGUCGAGUAGAGUGUGGGCUCCGCGGGUCCAGGGUUCAAGUCCCUGUUCGGGCGCCA; test: fluorescence imaging in RNA-peptide condensates; conditions: 100 mM K+, 1 mM Mg2+; 40 mM Tris pH 7.5, room temperature; 5 µM RNA; rU22 or rA22 with [RGRGG]5 or R10
[3] = test system: U50G, C52A, A66U (eBroccoli) (RNA, aptamer) GCCCGGAUAGCUCAGUCGGUAGAGCAGCGGAGACGGUCGGGUCCAGAUAGUAGUAUCUGUCGAGUUGAGUGUGGGCUCCGCGGGUCCAGGGUUCAAGUCCCUGUUCGGGCGCCA; test: fluorescence light-up, microplate; conditions: 0.5 mM K+, 10 mM Na+, 0.2 mM Mg2+, 0.1 mM Ca2+; 20 mM Tris pH 7.5; 25, 37, 45 °C; 0.5 µM RNA, 10 µM compound

Measured: binding

CC1=N/C(=C\c2cc(F)c(O)c(F)c2)C(=O)N1CC(F)(F)F
yes: all assays above
